Results on 51 compounds are retold here after US20260325540A1 (priority 2023, published 2026).

Sequence of HCoV-229E 3CL protease (P0C6U2 2966-3267): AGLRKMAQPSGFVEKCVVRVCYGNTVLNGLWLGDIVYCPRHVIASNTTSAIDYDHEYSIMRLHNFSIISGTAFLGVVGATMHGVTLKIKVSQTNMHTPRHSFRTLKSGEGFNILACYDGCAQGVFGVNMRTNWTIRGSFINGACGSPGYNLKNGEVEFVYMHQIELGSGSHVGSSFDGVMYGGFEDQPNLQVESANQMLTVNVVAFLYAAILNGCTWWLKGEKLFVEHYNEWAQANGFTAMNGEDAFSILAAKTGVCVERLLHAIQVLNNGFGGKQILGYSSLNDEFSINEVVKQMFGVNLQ

This test addresses HCoV-229E 3CL protease (Human coronavirus 229E, UniProt P0C6U2). Put plainly: FRET based protease assay, HCoV-229E 3CL. The test is classed as biochemical. The following applies: 229E IC50, 6 nM H229E-CoV Chis-3CLpro, 6 μM peptide 1 substrate, 25° C., 1.5 hrs, pH 7.5.
For orientation: IC50 means the midpoint of a concentration-inhibition curve. `N#C[C@@H]1C[C@@H]2C(=O)NC[C@@H]2CCCC[C@H](NC(=O)C2CC(F)(F)C2)C(=O)N2C[C@@H]3CCC[C@@H]3[C@H]2C(=O)N1` [Example 84]: the IC50 was less than 100 nM.

`CC(C)(C)OC(=O)N[C@H]1CCCC[C@H]2CNC(=O)[C@H]2C[C@@H](C#N)NC(=O)[C@@H]2[C@H]3CC[C@H](C3)N2C1=O` [Example 127] displayed a concentration for half-maximal inhibition (IC50) of 1000 to 20000 nM.

The compound `CC(C)(C)C(=O)N[C@H]1CCCC[C@H]2CCNC(=O)[C@@H]2C[C@@H](C#N)NC(=O)[C@@H]2[C@@H]3[C@H](CN2C1=O)C3(C)C` [Example 65] yielded an IC50 of 1000 to 20000 nM.

`N#C[C@@H]1C[C@@H]2C(=O)NC[C@@H]2CCCC[C@H](NC(=O)C(F)(F)F)C(=O)N2C[C@@H]3CCC[C@@H]3[C@H]2C(=O)N1` [Example 88] displayed an IC50 of less than 100 nM.

`CC(C)(C)OC(=O)N[C@H]1CC/C=C\[C@H]2CCNC(=O)[C@H]2CC(C#N)NC(=O)[C@@H]2[C@H]3CCC[C@H]3CN2C1=O` (stereo partly drawn) [Example 97]: the half-maximal inhibitory concentration (IC50) is less than 100 nM.

With `CC(C)C[C@@H]1NC(=O)[C@@H](Cc2cccc(C(F)(F)F)c2)CCCC[C@H]2CNC(=O)[C@H]2C[C@@H](C#N)NC1=O` [Example 40], the IC50 was 1000 to 20000 nM.

As to `CC(C)(C)C(=O)N[C@H]1CCCC[C@H]2CNC(=O)[C@H]2C[C@@H](C#N)NC(=O)[C@H](C2CCCC2)NC1=O` [Example 80], the IC50 lay within 100 to 1000 nM.

As to `N#C[C@@H]1C[C@@H]2C(=O)NC[C@@H]2CCCC[C@H](Nc2nccc(C(F)(F)F)n2)C(=O)N2C[C@@H]3CCC[C@@H]3[C@H]2C(=O)N1` [Example 165], the half-maximal inhibitory concentration (IC50) was in the range of 100 to 1000 nM.

`CC1(C)[C@@H]2[C@H]3C(=O)N[C@H](C#N)C[C@@H]4C(=O)NC[C@@H]4CCCC[C@H](NC(=O)CC4CC(F)(F)C4)C(=O)N3C[C@@H]21` [Example 89] registered an IC50 of less than 100 nM.

With `CC(C)C[C@@H]1NC(=O)[C@@H](NC(=O)OC(C)(C)C)CCC[C@@H]2CNC(=O)[C@@H]2C[C@@H](C=O)NC1=O` [Example 16], the IC50 fell in the range of 1000 to 20000 nM.

`CC1(C)[C@@H]2[C@H]3C(=O)N[C@H](C#N)C[C@@H]4C(=O)NCC[C@@H]4CCCC[C@H](NC(=O)OC4CCCC4)C(=O)N3C[C@@H]21` [Example 124] gave a half-maximal inhibitory concentration (IC50) of less than 100 nM.

`CC(C)(F)C[C@@H]1NC(=O)[C@@H](NC(=O)OC(C)(C)C)CCCC[C@H]2CNC(=O)[C@H]2C[C@@H](C#N)NC1=O` [Example 138] displayed a 50% inhibitory concentration (IC50) of 100 to 1000 nM.

Consider `CC(C)(C)C(=O)N[C@H]1CCCC[C@H]2CCNC(=O)[C@H]2C[C@@H](C#N)NC(=O)[C@@H]2[C@@H]3[C@H](CN2C1=O)C3(C)C` [Example 69], for which the IC50 is less than 100 nM.

Regarding `CC(C)(C)OC(=O)N[C@H]1COCCC[C@H]2CNC(=O)[C@H]2C[C@@H](C#N)NC(=O)[C@@H]2[C@@H]3[C@H](CN2C1=O)C3(C)C` [Example 102], the IC50 was less than 100 nM.

With `CC(C)(C)OC(=O)N[C@H]1CCCC[C@H]2CNC(=O)[C@H]2C[C@@H](C#N)NC(=O)[C@@H]2[C@@H]3[C@H](CN2C1=O)C3(C)C` [Example 72], the IC50 was less than 100 nM.

Compound `CC(C)(C)OC(=O)N[C@H]1CCC[C@H]2CNC(=O)[C@H]2C[C@@H](C#N)NC(=O)[C@@H]2[C@@H]3[C@H](CN2C(=O)C1)C3(C)C` [Example 125] registered an IC50 of 100 to 1000 nM.

Regarding `CC1(C)[C@@H]2[C@H]3C(=O)N[C@H](C#N)C[C@@H]4C(=O)NC[C@@H]4CCCC[C@H](NC(=O)c4cc(C(F)(F)F)on4)C(=O)N3C[C@@H]21` [Example 153], the IC50 was less than 100 nM.

Compound `CCO[C@@H]1C[C@H]2C(=O)N[C@H](C#N)C[C@@H]3C(=O)NC[C@@H]3CCCC[C@H](NC(=O)OC(C)(C)C)C(=O)N2C1` [Example 144] gave a 50% inhibitory concentration (IC50) of 100 to 1000 nM.

For `CC(C)C[C@@H]1NC(=O)[C@@H](NC(=O)C(C)(C)C)CC/C=C/[C@H]2CNC(=O)[C@H]2C[C@@H](C#N)NC1=O` [Example 58], the half-maximal inhibitory concentration (IC50) is less than 100 nM.

As to `CC(C)(C)C(=O)N[C@H]1CC/C=C/[C@H]2CNC(=O)[C@H]2C[C@@H](C#N)NC(=O)[C@@H]2[C@@H]3[C@H](CN2C1=O)C3(C)C` [Example 61], the half-maximal inhibitory concentration (IC50) is less than 100 nM.

In turn, `CC1(C)[C@@H]2[C@H]3C(=O)N[C@H](C#N)C[C@@H]4C(=O)NC[C@@H]4CCCC[C@H](NC(=O)C45CC(C(F)(F)F)(C4)C5)C(=O)N3C[C@@H]21` [Example 119] returned an IC50 of less than 100 nM.

Take `Cc1nc(C(=O)N[C@H]2CCCC[C@H]3CNC(=O)[C@H]3C[C@@H](C#N)NC(=O)[C@@H]3[C@@H]4[C@H](CN3C2=O)C4(C)C)cs1` [Example 113]: the concentration for half-maximal inhibition (IC50) was 100 to 1000 nM.

`CC(C)C[C@@H]1NC(=O)[C@@H](NC(=O)OC(C)(C)C)CCCC[C@H]2CNC(=O)[C@H]2C[C@@H](C#N)NC1=O` [Example 56] gave an IC50 of less than 100 nM.

In turn, `CC(C)(C)C(=O)N[C@H]1C/C=C\[C@H]2CNC(=O)[C@H]2C[C@@H](C#N)NC(=O)[C@@H]2[C@@H]3[C@H](CN2C1=O)C3(C)C` [Example 64] registered a concentration for half-maximal inhibition (IC50) of 1000 to 20000 nM.

With `CC(C)C[C@@H]1NC(=O)[C@@H](NC(=O)OC(C)(C)C)CCC[C@H]2CNC(=O)[C@H]2C[C@@H](C=O)NC1=O` [Example 15], the IC50 lay in the range of 100 to 1000 nM.

The compound `CN1C[C@@H]2CCCC[C@H](NC(=O)OC(C)(C)C)C(=O)N3C[C@H]4[C@@H]([C@H]3C(=O)N[C@H](C#N)C[C@@H]2C1=O)C4(C)C` [Example 140] had an IC50 of 1000 to 20000 nM.

Compound `CC1(C)[C@@H]2[C@H]3C(=O)N[C@H](C#N)C[C@@H]4C(=O)NC[C@@H]4CCCC[C@H](NS(=O)(=O)c4ccccc4)C(=O)N3C[C@@H]21` [Example 154] showed an IC50 of less than 100 nM.

For `CC1(C)[C@@H]2[C@H]3C(=O)N[C@H](C#N)C[C@@H]4C(=O)NC[C@@H]4CCCC[C@H](NC(=O)c4cccc(Cl)c4Cl)C(=O)N3C[C@@H]21` [Example 134], the half-maximal inhibitory concentration (IC50) was less than 100 nM.

`CC(C)(C)OC(=O)N[C@H]1CCC[C@H]2CCNC(=O)[C@H]2C[C@@H](C#N)NC(=O)[C@@H]2[C@H]3CCC[C@H]3CN2C1=O` [Example 100] yielded an IC50 of 100 to 1000 nM.

In turn, `CC(C)C[C@@H]1NC(=O)[C@@H](Cc2ccccc2)CCCC[C@H]2CNC(=O)[C@@H]2C[C@@H](C=O)NC1=O` [Example 37] gave an IC50 of less than 100 nM.

Take `CC(C)(C)OC(=O)N[C@H]1CCCC[C@H]2CNC(=O)[C@H]2C[C@@H](C#N)NC(=O)[C@H]2N(CC(F)(F)C2(C)C)C1=O` [Example 146]: the IC50 lay within 100 to 1000 nM.

For `CC(C)(C)C(=O)N[C@H]1CCCC[C@H]2CNC(=O)[C@H]2C[C@@H](C#N)NC(=O)[C@@H]2CCCCN2C1=O` [Example 71], the IC50 was in the range of 1000 to 20000 nM.

Regarding `CC(C)(C)C[C@@H]1NC(=O)[C@@H](NC(=O)c2ccc(F)c(C(F)(F)F)c2)CCCC[C@H]2CNC(=O)[C@H]2C[C@@H](C#N)NC1=O` [Example 142], the IC50 fell in the range of 100 to 1000 nM.

Take `CC(C)C[C@@H]1NC(=O)[C@H](Cc2ccccc2)CCC[C@H]2CNC(=O)[C@H]2C[C@@H](C=O)NC1=O` [Example 12]: the IC50 was less than 100 nM.

Turning to `CC(C)(C)C(=O)N[C@H]1CCC[C@H]2CCNC(=O)[C@@H]2C[C@@H](C#N)NC(=O)[C@@H]2[C@@H]3[C@H](CN2C1=O)C3(C)C` [Example 66], the half-inhibitory concentration (IC50) lay within 100 to 1000 nM.

`CC1(C)[C@@H]2[C@H]3C(=O)N[C@H](C#N)C[C@@H]4C(=O)NC[C@@H]4CCCC[C@H](NC(=O)C4CC5(CCC5)C4)C(=O)N3C[C@@H]21` (stereo partly drawn) [Example 81] gave an IC50 of less than 100 nM.

Regarding `CC1(C)[C@@H]2[C@H]3C(=O)N[C@H](C#N)C[C@@H]4C(=O)NC[C@@H]4CCCC[C@H](NS(=O)(=O)C4(C)CC4)C(=O)N3C[C@@H]21` [Example 159], the IC50 is less than 100 nM.

For the compound `CC(C)(C)C(=O)N[C@H]1CCCC[C@H]2CNC(=O)[C@H]2C[C@@H](C#N)NC(=O)[C@@H]2[C@H]3CCC[C@H]3CN2C1=O` [Example 70], the 50% inhibitory concentration (IC50) is less than 100 nM.

Consider `CC1(C)C[C@H]2C(=O)N[C@H](C#N)C[C@@H]3C(=O)NC[C@@H]3CCCC[C@H](NC(=O)OC(C)(C)C)C(=O)N2C1` [Example 130], for which the IC50 was less than 100 nM.

`CC(C)(C)OC(=O)N[C@H]1CCCC[C@H]2CNC(=O)[C@H]2C[C@@H](C#N)NC(=O)[C@@H]2CCCCCN2C1=O` [Example 143] showed a half-maximal inhibitory concentration (IC50) of 100 to 1000 nM.

`CC(C)C[C@@H]1NC(=O)CCCC[C@@H]2CNC(=O)[C@@H]2C[C@@H](C=O)NC1=O` [Example 1] yielded an IC50 of 1000 to 20000 nM.

Consider `CC(C)C[C@@H]1NC(=O)[C@@H](Cc2ccccc2)CCCC[C@@H]2CNC(=O)[C@@H]2C[C@@H](C=O)NC1=O` [Example 35], for which the IC50 was in the range of 1000 to 20000 nM.

The compound `CC1(C)[C@@H]2[C@H]3C(=O)N[C@H](C#N)C[C@@H]4C(=O)NC[C@@H]4CCCC[C@H](NC(=O)OC4(C(F)(F)F)CCC4)C(=O)N3C[C@@H]21` [Example 152] showed an IC50 of less than 100 nM.

The compound `CC(C)(C)COC(=O)N[C@H]1CCCC[C@H]2CNC(=O)[C@H]2C[C@@H](C#N)NC(=O)[C@@H]2[C@@H]3[C@H](CN2C1=O)C3(C)C` [Example 106] had an IC50 of less than 100 nM.

In turn, `CC(C)C[C@@H]1NC(=O)[C@@H](N(C)C(=O)OC(C)(C)C)CCC[C@H]2CNC(=O)[C@@H]2C[C@@H](C#N)NC1=O` [Example 22] gave a 50% inhibitory concentration (IC50) of 1000 to 20000 nM.

As for `CC1(C)[C@@H]2[C@H]3C(=O)N[C@H](C#N)C[C@@H]4C(=O)NC[C@@H]4CCCC[C@H](NS(=O)(=O)c4ccc(F)cc4F)C(=O)N3C[C@@H]21` [Example 157], the half-maximal inhibitory concentration (IC50) is less than 100 nM.

Regarding `CC1(C)[C@@H]2[C@H]3C(=O)N[C@H](C#N)C[C@@H]4C(=O)NC[C@@H]4CCCC[C@H](NS(=O)(=O)C(F)(F)F)C(=O)N3C[C@@H]21` [Example 158], the IC50 was less than 100 nM.

`N#C[C@@H]1C[C@H]2C(=O)NC[C@@H]2CCCCC(=O)N2C[C@@H]3CCC[C@@H]3[C@H]2C(=O)N1` [Example 26] showed a half-inhibitory concentration (IC50) of 1000 to 20000 nM.

For `N#C[C@@H]1C[C@@H]2C(=O)NC[C@@H]2CCCC[C@H](NC(=O)C2(C(F)(F)F)CC2)C(=O)N2C[C@@H]3CCC[C@@H]3[C@H]2C(=O)N1` [Example 150], the half-inhibitory concentration (IC50) is less than 100 nM.

Take `CC(C)(C)OC(=O)N[C@H]1CCCC[C@H]2CNC(=O)[C@H]2C[C@@H](C#N)NC(=O)[C@@H]2[C@H]3CCC[C@H]3CN2C1=O` [Example 79]: the IC50 is less than 100 nM.

Compound `CC(C)C[C@@H]1NC(=O)CCCCCC[C@H]2CNC(=O)[C@H]2C[C@@H](C=O)NC1=O` [Example 45] gave an IC50 of less than 100 nM.
